From patent publication US9926282B2, “Phthalazinones and isoquinolinones as rock inhibitors” (BRISTOL-MYERS SQUIBB COMPANY, priority 2013, dated 2018)

Columns and labels:
neointimal formation = conditions: rats; cited from earlier work
[1] = tested on: congestive heart failure in Dahl salt-sensitive rats; conditions: cited from earlier work
rat stroke model = conditions: cited from earlier work
ROCK1 = ROCK1 (Homo sapiens (Human), UniProt Q13464); test: ROCK assay (LABCHIP peptide phosphorylation), ROCK1; format: biochemical; conditions: 5 μM ATP, 1.5 μM peptide substrate; read-out: ROCK1 IC50
Sequence of ROCK1 (Q13464 whole entry, species assumed): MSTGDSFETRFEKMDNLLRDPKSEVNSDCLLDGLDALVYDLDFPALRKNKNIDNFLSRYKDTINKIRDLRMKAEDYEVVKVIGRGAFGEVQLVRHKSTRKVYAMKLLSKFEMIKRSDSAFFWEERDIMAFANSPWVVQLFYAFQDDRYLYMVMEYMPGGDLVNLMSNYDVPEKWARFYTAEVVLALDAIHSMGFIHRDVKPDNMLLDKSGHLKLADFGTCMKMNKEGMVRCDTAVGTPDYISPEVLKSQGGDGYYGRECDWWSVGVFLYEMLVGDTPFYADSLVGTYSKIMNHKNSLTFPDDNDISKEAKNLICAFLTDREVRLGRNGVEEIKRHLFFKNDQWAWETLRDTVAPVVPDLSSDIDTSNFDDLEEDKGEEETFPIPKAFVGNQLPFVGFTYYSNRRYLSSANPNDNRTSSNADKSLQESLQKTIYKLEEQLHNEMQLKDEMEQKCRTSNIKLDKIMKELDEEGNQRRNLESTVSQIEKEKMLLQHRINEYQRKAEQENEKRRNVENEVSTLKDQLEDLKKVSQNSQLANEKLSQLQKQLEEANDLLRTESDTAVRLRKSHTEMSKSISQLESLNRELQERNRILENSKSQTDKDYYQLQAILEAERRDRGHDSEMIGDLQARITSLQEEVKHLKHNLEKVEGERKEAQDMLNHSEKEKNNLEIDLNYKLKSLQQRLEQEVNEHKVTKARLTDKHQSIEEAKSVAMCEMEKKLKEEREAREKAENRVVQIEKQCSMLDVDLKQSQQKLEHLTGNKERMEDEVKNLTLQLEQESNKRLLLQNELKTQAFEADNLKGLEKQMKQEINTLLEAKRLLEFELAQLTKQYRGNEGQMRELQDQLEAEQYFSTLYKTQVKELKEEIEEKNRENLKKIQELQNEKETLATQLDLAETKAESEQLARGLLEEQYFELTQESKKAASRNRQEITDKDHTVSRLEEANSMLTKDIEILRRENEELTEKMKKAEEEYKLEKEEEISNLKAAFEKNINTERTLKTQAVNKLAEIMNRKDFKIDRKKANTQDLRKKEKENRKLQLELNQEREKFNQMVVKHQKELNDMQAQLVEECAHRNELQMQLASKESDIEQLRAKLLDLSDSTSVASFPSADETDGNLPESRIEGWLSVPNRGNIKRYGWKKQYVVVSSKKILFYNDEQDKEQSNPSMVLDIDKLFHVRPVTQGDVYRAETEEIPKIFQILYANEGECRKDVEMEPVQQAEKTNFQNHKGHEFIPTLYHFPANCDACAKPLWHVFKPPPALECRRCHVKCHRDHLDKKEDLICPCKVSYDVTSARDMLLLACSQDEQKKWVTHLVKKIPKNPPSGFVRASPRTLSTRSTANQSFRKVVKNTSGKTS

ROCK2 = ROCK2 (Homo sapiens (Human), UniProt O75116); test: ROCK assay (LABCHIP peptide phosphorylation), ROCK2; format: biochemical; conditions: 5 μM ATP, 1.5 μM peptide substrate
Sequence of ROCK2 (O75116 whole entry, species assumed): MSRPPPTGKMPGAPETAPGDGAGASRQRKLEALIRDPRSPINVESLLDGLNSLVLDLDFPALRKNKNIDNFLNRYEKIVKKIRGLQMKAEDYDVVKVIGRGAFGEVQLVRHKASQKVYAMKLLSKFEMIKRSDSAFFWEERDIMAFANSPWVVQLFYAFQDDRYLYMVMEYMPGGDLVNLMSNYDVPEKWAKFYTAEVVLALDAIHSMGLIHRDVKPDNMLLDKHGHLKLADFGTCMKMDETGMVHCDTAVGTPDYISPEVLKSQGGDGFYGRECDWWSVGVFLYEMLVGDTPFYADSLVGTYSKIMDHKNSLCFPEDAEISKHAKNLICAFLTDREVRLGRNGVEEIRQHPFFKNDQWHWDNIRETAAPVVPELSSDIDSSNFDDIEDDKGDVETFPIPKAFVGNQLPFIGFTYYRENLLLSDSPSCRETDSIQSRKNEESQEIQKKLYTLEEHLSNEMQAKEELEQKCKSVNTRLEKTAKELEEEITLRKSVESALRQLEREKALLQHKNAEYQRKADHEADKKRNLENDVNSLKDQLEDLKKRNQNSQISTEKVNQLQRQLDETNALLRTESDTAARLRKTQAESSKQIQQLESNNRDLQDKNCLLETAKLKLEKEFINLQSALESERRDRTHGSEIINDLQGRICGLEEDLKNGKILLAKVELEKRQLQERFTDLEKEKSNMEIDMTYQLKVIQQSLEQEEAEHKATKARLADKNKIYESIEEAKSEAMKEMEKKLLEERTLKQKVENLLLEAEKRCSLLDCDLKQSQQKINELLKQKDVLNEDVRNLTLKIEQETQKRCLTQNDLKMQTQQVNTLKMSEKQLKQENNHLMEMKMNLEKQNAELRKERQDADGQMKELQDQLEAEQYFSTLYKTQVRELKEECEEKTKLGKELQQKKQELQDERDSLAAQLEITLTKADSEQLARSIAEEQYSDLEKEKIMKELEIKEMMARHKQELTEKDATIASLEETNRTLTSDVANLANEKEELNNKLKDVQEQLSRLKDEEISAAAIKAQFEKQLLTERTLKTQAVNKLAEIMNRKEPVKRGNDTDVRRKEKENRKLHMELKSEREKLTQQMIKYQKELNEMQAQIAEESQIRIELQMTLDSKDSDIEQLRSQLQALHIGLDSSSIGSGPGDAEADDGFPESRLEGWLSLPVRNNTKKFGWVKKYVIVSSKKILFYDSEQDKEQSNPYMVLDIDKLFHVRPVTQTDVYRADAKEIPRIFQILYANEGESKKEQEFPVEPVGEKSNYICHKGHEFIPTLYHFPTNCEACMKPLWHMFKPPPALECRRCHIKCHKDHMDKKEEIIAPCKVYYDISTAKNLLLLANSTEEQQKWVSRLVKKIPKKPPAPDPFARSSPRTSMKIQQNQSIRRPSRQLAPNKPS

Compound	neointimal formation (neointimal formation)	ventricular hypertrophy, fibrosis and function [1]	infarct size and neurologic deficit (rat stroke model)	IC50 (ROCK1) [nM]	IC50 (ROCK2) [nM]
C[C@@H](N)[C@H]1CC[C@H](C(=O)Nc2ccncc2)CC1 [Example Y-27632]	inhibited neointimal formation	improve ventricular hypertrophy, fibrosis and function	–	–	–
O=S(=O)(c1cccc2cnccc12)N1CCCNCC1 [fasudil]	–	–	reduce both the infarct size and neurologic deficit	–	–
Cn1nc2ccccc2c1C(=O)Nc1ccc(-c2n[nH]c(=O)c3ccccc23)cc1 [Example 131, 2-methyl-N-[4-(4-oxo-3,4-dihydrophthalazin-1-yl)phenyl]-2H-indazole-3-carboxamide]	–	–	–	0.1 to 100	0.1 to 100
O=C(Cc1ccc(-c2n[nH]c(=O)c3ccccc23)cc1)N1CCc2ccc([N+](=O)[O-])cc21 [Example 285, 4-{4-[2-(6-nitro-2,3-dihydro-1H-indol-1-yl)-2-oxoethyl]phenyl}-1,2-dihydrophthalazin-1-one]	–	–	–	0.1 to 100	0.1 to 100
COCCCn1nc(C(=O)Nc2ccc(-c3n[nH]c(=O)c4ccccc34)cc2)c2ccccc21 [Example 163, 1-(3-methoxypropyl)-N-[4-(4-oxo-3,4-dihydrophthalazin-1-yl)phenyl]-1H-indazole-3-carboxamide]	–	–	–	0.1 to 100	0.1 to 100
COc1ccc2c(c1)N(C(=O)Nc1ccc(-c3c[nH]c(=O)c4ccccc34)cc1)CC2 [Example 80, 6-Methoxy-N-(4-(1-oxo-1,2-dihydroisoquinolin-4-yl)phenyl)indoline-1-carboxamide]	–	–	–	0.1 to 100	0.1 to 100
